Patent publication US20260234157A1, “COMPOUND AND METHOD FOR TARGETED DEGRADATION OF ANDROGEN RECEPTOR” (Gan & Lee Pharmaceuticals Co., Ltd., priority 2023, published 2026)
Numbering of substitutions follows the chain as printed.

How the values were obtained:
Assay type in all cases: cell-based
[1] = target: T1, AR protein (Homo sapiens, UniProt P10275, T878A); assay: Degradation of AR protein in LNCaP cells (Western blot); settings: LNCaP cells, 8 hours, Western blot grayscale, GAPDH internal reference; for inhibition at 0.01 µM: compound 10 nM, read-out: Degradation rates of the AR protein in LNCaP cells, 10 nM (%); for inhibition at 0.1 µM: compound 100 nM, read-out: Degradation rates of the AR protein in LNCaP cells, 100 nM (%)
T1 construct: degradation activity of the compounds disclosed in the present disclosure on AR protein in LNCaP cells; host or cells: LNCaP FGC
T1 sequence (P10275 1-920 T878A): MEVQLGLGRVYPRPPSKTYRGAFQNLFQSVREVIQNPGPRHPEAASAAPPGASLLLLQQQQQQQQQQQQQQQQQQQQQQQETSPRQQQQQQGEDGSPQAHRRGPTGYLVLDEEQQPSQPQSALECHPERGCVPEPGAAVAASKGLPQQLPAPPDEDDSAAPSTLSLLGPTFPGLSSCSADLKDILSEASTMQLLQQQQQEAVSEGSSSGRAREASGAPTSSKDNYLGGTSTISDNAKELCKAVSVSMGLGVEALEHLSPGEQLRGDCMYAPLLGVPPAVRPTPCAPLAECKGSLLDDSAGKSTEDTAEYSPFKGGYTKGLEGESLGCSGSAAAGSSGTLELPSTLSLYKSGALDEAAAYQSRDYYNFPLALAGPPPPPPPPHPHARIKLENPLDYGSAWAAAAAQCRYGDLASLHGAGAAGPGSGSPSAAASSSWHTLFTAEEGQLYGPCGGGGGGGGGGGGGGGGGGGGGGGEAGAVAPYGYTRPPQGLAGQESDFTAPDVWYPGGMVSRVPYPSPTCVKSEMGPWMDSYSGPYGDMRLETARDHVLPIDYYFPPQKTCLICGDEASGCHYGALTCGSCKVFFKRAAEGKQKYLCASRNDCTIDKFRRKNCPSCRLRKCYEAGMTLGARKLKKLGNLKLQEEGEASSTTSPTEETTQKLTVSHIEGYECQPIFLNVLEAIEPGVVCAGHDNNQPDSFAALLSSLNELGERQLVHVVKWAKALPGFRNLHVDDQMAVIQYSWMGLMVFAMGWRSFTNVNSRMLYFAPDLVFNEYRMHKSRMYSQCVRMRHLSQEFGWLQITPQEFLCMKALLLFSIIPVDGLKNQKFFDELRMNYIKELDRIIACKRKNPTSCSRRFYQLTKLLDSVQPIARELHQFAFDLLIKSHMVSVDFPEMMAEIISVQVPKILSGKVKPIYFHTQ
Method in brief: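 AR assessed by SDS-PAGE/Western blot with infrared imaging; band greyscale normalised to GAPDH gave percent degradation.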

[2] = target: T2, AR protein (Homo sapiens, UniProt P10275); assay: Degradation of AR protein in VCaP cells (Western blot); settings: 8 hours; for inhibition at 0.01 µM: compound at 10 nM, read-out: Degradation rate of the AR protein in VCaP cells, 10 nM (%); for inhibition at 0.1 µM: compound at 100 nM, read-out: Degradation rate of the AR protein in VCaP cells, 100 nM (%)
T2 construct: degradation activity of the compounds disclosed in the present disclosure on AR protein in VCaP cells; host or cells: VCaP
T2 sequence (P10275 1-920): T1 sequence (P10275 1-920 T878A) with A878T
Method in brief: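 VCaP cells treated with compound alongside solvent controls for 8 h, then lysed in RIPA and protein quantified by BCA. AR detected by SDS-PAGE/Western blot with infrared imaging. Degradation rate calculated from band grayscale, with GAPDH as internal reference.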

[3] = tested on: LNCaP FGC cells; assay: Inhibition of proliferation of LNCaP cells (WST-8); settings: Homo sapiens, LNCaP, 96 h, LNCaP FGC cells, 96 hours, WST-8 absorbance at 450 nm; read-out: IC50 for inhibiting the proliferation of LNCaP cells
Method: The cells were cultured in a cell culture incubator with 5% CO2 at 37° C. overnight. […] On the sixth day, 96 well plates were taken out, and 20 μL of WST-8 (Beytime, C0040) reagent was added to each well.

[4] = tested on: VCaP cells; assay: Inhibition of proliferation of VCaP cells (WST-8); settings: Homo sapiens; VCaP cells, 168 hours, WST-8 absorbance at 450 nm; read-out: IC50 for inhibiting the proliferation of VCaP cells
Method in brief: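 VCaP FGC cells, 15000 per well in DMEM with 10% FBS, were cultured at 37° C, 5% CO2. On day nine, WST-8 reagent was added to read proliferation.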

SMILES | inhibition at 0.01 µM [1] [%] | inhibition at 0.1 µM [1] [%] | inhibition at 0.01 µM [2] [%] | inhibition at 0.1 µM [2] [%] | IC50 [3] [nM] | IC50 [4] [nM]
N#Cc1ccc(O[C@H]2CC[C@H](NC(=O)c3ccc(N4CCC(CN5CCC6(CC5)COc5cc7c(cc56)C(=O)N(C5CCC(=O)NC5=O)C7=O)CC4)nn3)CC2)cc1Cl (stereo partly drawn) [Compound 56] | 44 | 77 | 79 | 88 | 350 | 60
N#Cc1ccc(O[C@H]2CC[C@H](NC(=O)c3ccc(N4CC[C@@H](CN5CCC6(CC5)COc5cc7c(cc56)C(=O)N(C5CCC(=O)NC5=O)C7=O)C4)nn3)CC2)cc1Cl (stereo partly drawn) [Compound 57] | 45 | 72 | 66 | 80 | 1360 | 38
N#Cc1ccc(O[C@H]2CC[C@H](NC(=O)c3ccc(N4CC[C@H](CN5CCC6(CC5)COc5cc7c(cc56)C(=O)N(C5CCC(=O)NC5=O)C7=O)C4)nn3)CC2)cc1Cl (stereo partly drawn) [Compound 58] | 33 | 58 | 91 | 93 | 1800 | 69
N#Cc1ccc(O[C@H]2CC[C@H](NC(=O)c3ccc(N4CC(CN5CCC6(CC5)COc5cc7c(cc5C6)C(=O)N(C5CCC(=O)NC5=O)C7=O)C4)nn3)CC2)cc1Cl (stereo partly drawn) [Compound 59] | 43 | 66 | 86 | 87 | 400 | 110
N#Cc1ccc(O[C@H]2CC[C@H](NC(=O)c3ccc(N4CCC5(CC4)COc4cc6c(cc4C5)C(=O)N(C4CCC(=O)NC4=O)C6=O)nn3)CC2)cc1Cl (stereo partly drawn) [Compound 60] | 41 | 64 | 41 | 64 | 2400 | 4400
N#Cc1ccc(O[C@H]2CC[C@H](NC(=O)c3ccc(N4CCC5(CCC(N6CCC7(CC6)COc6cc8c(cc6C7)C(=O)N(C6CCC(=O)NC6=O)C8=O)CC5)C4)nn3)CC2)cc1Cl (stereo partly drawn) [Compound 62] | 46 | 76 | 66 | 74 | 820 | 520
N#Cc1ccc(O[C@H]2CC[C@H](NC(=O)c3ccc(N4CCC5(CC(N6CCC7(CC6)COc6cc8c(cc6C7)C(=O)N(C6CCC(=O)NC6=O)C8=O)C5)C4)nn3)CC2)cc1Cl (stereo partly drawn) [Compound 63] | 0 | 65 | 67 | 81 | 500 | 240
N#Cc1ccc(O[C@H]2CC[C@H](NC(=O)c3ccc(N4CCC5(CCC(N6CCC7(CC6)COc6cc8c(cc6C7)C(=O)N(C6CCC(=O)NC6=O)C8=O)CC5)CC4)nn3)CC2)cc1Cl (stereo partly drawn) [Compound 64] | 44 | 72 | 62 | 73 | 800 | 160
N#Cc1ccc(O[C@H]2CC[C@H](NC(=O)c3ccc(N4CC5(CCC(N6CCC7(CC6)COc6cc8c(cc6C7)C(=O)N(C6CCC(=O)NC6=O)C8=O)CC5)C4)nn3)CC2)cc1Cl (stereo partly drawn) [Compound 65] | 36 | 75 | 50 | 71 | 500 | 100
N#Cc1ccc(OC2CCC(NC(=O)c3ccc(N4CC5(CC(N6CCC7(CC6)COc6cc8c(cc6C7)C(=O)N(C6CCC(=O)NC6=O)C8=O)C5)C4)nn3)CC2)cc1Cl (stereo not drawn) [Compound 66] | 72 | 74 | 49 | 42 | 420 | 530
N#Cc1ccc(O[C@H]2CC[C@H](NC(=O)c3ccc(N4CCC(F)(CN5CCC6(CC5)COc5cc7c(cc5C6)C(=O)N(C5CCC(=O)NC5=O)C7=O)CC4)nn3)CC2)cc1Cl (stereo partly drawn) [Compound 67] | 37 | 60 | 43 | 72 | 15 | 190
COC1(CN2CCC3(CC2)COc2cc4c(cc2C3)C(=O)N(C2CCC(=O)NC2=O)C4=O)CCN(c2ccc(C(=O)NC3CCC(Oc4ccc(C#N)c(Cl)c4)CC3)nn2)CC1 (stereo not drawn) [Compound 69] | 26 | 64 | 50 | 78 | 390 | 960
N#Cc1ccc(O[C@H]2CC[C@H](NC(=O)c3ccc(N4CCC5(CC4)CC(N4CCC6(CC4)COc4cc7c(cc4C6)C(=O)N(C4CCC(=O)NC4=O)C7=O)C5)nn3)CC2)cc1Cl (stereo partly drawn) [Compound 71] | 37 | 71 | 54 | 66 | 500 | 160
N#Cc1ccc(O[C@H]2CC[C@H](NC(=O)c3ccc(N4CCC(CN5CCC6(CC5)COc5cc7c(cc5C6)C(=O)N(C5CCC(=O)NC5=O)C7=O)CC4)nn3)CC2)cc1Cl (stereo partly drawn) [Compound 72] | 81 | 92 | 75 | 85 | 50 | 100
N#Cc1ccc(O[C@H]2CC[C@H](NC(=O)c3ccc(N4CC[C@H](CN5CCC6(CC5)COc5cc7c(cc5C6)C(=O)N(C5CCC(=O)NC5=O)C7=O)C4)nn3)CC2)cc1Cl (stereo partly drawn) [Compound 74] | 39 | 79 | 47 | 65 | 600 | 600
COC1(CN2CC3(CCc4ccc5c(c4O3)C(=O)N(C3CCC(=O)NC3=O)C5)C2)CCN(c2ccc(C(=O)N[C@H]3CC[C@H](Oc4ccc(C#N)c(Cl)c4)CC3)nn2)CC1 (stereo partly drawn) [Compound 138] | -9 | -1 | -28 | 7 | 71500 | > 90000
